# Where a name gives a salt, the structure may show the parent alone. Read-outs that look alike come from different tables or passages of the source.
# Key:
# [1] = test system: whole complement; assay: In vivo complement inhibition in guinea pigs (whole complement of serum, capillary tube assay); design: species or system guinea pig; details: for change in vivo at 200 mg/kg: Cavia porcellus, ip
# Excerpt: (§1) An active inhibitor protects C2 from C1 and C4; (ii) Test, Code 035 (C3-C9 inhibitor)--This test determines the ability of the late components of human complement (C3-C9) to lyse EAC 142 in the presence of appropriate dilutions of the test compound. An active inhibitor protects EAC 142 from lysis by human C3-C9; (iii) Test, Code 036 (C-Shunt inhibitor)--In this test human erythrocytes rendered fragile are lysed in autologous serum via the shunt pathway activated by cobra venom factor in the presence of appropriate dilutions of the test compound. Inhibition of the shunt pathway results in failure of lysis; (iv) Forssman Vasculitis Test--Here, the well known complement dependent lesion, Forssman vasculitis, is produced in guinea pigs by intradermal injection of rabbit anti-Forssman antiserum. The lesion is measured in terms of diameter, edema and hemorrhage and the extent to which a combined index of these is inhibited by prior intraperitoneal injection of the test compound at 200 mg/kg is then reported, unless otherwise stated; (v) Forssman Shock Test--Lethal shock is produced in guinea pigs by an i.v. injection of anti-Forssman antiserum and the harmonic mean death time of treated guinea pigs is compared with that of simultaneous controls; (vi) Complement Level Reduction Test--In this test, the above dosed guinea pigs, or others, are bled for serum and the complement level is determined in undiluted serum by the capillary tube method of U.S. Pat. No. 3,876,376 and compared to undosed control guinea pigs; and (vii) Cap 50 Test--Here, appropriate amounts of the test compound are added to a pool of guinea pig serum in vitro, after which the undiluted serum capillary tube assay referred to above is run. The concentration of compound inhibiting 50% is reported.
# With reference to Table I, guinea pigs weighing about 300 g were dosed intravenously (i.v.) or intraperitoneally (i.p.) with 200 mg/kg of the test compound dissolved in saline and adjusted to pH 7-8. […] The serum was tested for whole complement using the capillary tube assay. Percent inhibition was calculated by comparison with simultaneous controls. The results appear in Table I together with results of tests, Code 026, 035, 036, Cap 50, percent inhibition and Forssman shock.
# [2] = molecular target: T1, human C1 (Homo sapiens, UniProt P09871); assay: Test, Code 026 (C1 inhibitor): protection of fluid phase human C2 from activated human C1; type: biochemical; details: activity in wells, twofold serial dilution; higher well number indicates higher activity
# T1 construct: substrate fluid phase human C2, in presence of C4
# T1 sequence (P09871 16-688): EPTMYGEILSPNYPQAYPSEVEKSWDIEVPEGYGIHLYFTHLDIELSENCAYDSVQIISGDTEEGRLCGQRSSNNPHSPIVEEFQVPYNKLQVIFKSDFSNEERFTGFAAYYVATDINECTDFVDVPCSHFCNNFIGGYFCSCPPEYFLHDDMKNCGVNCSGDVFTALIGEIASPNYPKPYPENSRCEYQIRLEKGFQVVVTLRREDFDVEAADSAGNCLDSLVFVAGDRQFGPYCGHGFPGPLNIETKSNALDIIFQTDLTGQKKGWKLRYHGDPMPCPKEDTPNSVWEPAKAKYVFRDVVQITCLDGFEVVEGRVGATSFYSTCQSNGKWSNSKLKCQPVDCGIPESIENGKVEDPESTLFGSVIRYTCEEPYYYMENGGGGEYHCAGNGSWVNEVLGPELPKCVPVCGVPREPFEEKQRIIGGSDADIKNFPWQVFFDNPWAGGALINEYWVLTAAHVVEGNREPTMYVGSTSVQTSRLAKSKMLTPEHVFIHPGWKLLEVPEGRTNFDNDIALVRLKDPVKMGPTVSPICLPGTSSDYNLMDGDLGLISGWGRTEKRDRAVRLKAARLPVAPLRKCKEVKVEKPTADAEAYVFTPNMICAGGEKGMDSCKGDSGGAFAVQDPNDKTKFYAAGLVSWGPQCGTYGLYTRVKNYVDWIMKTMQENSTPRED
# T1 sequence (P00736 18-705 partner): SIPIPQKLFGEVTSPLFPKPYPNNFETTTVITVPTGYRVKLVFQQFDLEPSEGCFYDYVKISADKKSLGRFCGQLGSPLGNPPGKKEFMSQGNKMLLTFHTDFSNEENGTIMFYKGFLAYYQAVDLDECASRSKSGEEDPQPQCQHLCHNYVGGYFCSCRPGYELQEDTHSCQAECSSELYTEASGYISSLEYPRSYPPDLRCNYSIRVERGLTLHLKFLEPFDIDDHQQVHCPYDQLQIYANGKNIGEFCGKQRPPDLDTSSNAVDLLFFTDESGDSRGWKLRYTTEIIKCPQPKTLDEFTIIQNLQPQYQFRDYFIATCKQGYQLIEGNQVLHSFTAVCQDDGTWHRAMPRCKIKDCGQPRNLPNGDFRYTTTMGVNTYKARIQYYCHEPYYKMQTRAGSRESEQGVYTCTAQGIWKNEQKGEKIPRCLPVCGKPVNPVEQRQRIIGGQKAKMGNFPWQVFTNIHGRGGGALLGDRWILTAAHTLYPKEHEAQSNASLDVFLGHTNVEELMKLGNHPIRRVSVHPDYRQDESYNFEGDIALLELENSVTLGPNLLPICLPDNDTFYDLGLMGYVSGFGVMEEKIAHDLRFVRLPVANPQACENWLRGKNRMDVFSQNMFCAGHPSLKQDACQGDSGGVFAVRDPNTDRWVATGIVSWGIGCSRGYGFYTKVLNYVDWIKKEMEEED
# T1 sequence (P02745 23-245 partner): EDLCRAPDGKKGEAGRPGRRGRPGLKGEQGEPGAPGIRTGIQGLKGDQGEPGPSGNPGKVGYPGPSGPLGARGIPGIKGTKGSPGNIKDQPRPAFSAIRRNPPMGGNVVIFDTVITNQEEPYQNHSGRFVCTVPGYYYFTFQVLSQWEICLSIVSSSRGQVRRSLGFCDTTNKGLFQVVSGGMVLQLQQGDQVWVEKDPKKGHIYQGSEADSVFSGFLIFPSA
# T1 sequence (P02746 28-253 partner): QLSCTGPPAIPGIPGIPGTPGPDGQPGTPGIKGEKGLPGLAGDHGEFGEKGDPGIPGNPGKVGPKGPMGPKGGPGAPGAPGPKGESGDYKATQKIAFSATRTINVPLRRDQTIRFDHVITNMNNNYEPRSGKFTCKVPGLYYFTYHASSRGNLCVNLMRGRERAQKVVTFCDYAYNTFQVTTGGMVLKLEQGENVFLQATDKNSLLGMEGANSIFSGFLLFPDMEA
# T1 sequence (P02747 29-245 partner): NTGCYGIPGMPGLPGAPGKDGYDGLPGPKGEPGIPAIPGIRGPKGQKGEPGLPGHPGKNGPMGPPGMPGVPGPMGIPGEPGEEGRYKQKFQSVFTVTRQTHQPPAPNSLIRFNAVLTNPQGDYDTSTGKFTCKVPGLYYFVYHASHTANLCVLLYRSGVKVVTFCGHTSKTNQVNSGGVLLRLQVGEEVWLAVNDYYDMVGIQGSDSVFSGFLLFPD
# Excerpt: as §1
# (§2) **Activity in wells, a serial dilution assay. Higher well number indicate
# (§3) higher activity. The serial dilutions are twofold.
# [3] = test system: shunt pathway; assay: Test, Code 036 (C-Shunt inhibitor): lysis of human erythrocytes in autologous serum via shunt pathway activated by cobra venom factor; type: cell-based; details: activity in wells, twofold serial dilution; higher well number indicates higher activity
# Excerpt: as §1, §2, §3
# [4] = 2 h, intraperitoneal, 200 mg/kg, 120 mins., read-out: In Vivo Activity (Guinea Pig) % Inhibition Intraperitoneal 120 mins.
# [5] = 0.5 h, intraperitoneal, 200 mg/kg, 30 mins., read-out: In Vivo Activity (Guinea Pig) % Inhibition Intraperitoneal 30 mins.
# [6] = 1 h, intraperitoneal, 200 mg/kg, 60 mins., read-out: In Vivo Activity (Guinea Pig) % Inhibition Intraperitoneal 60 mins.
Compound,"change in vivo at 200 mg/kg [1, 4]",C1 026* Wells [2],Shunt Inhibition 036* Wells [3],"change in vivo at 200 mg/kg [1, 5]","change in vivo at 200 mg/kg [1, 6]",In Vivo Activity (Guinea Pig) % Inhibition Intravenous 2 mins. ([1]; 200 mg/kg),"In Vivo Activity (Guinea Pig) % Inhibition Intravenous 30 mins. ([1]; 200 mg/kg, 30 mins.)","In Vivo Activity (Guinea Pig) % Inhibition Intravenous 120 mins. ([1]; 200 mg/kg, 120 mins.)","change in vivo at 200 mg/kg ([1]; 0.5 h, read-out: In Vivo Activity (Guinea Pig) % Inhibition Intraperitoneal 30 mins.)","change in vivo at 200 mg/kg ([1]; 1 h, read-out: In Vivo Activity (Guinea Pig) % Inhibition Intraperitoneal 60 mins.)","change in vivo at 200 mg/kg ([1]; 2 h, read-out: In Vivo Activity (Guinea Pig) % Inhibition Intraperitoneal 120 mins.)"
"O=C(Nc1cc(C(=O)O)cc(C(=O)Nc2cc(S(=O)(=O)O)cc3cc(S(=O)(=O)O)cc(O)c23)c1)Nc1cc(C(=O)O)cc(C(=O)Nc2cc(S(=O)(=O)O)cc3cc(S(=O)(=O)O)cc(O)c23)c1 [3,3'-(Carbonyldiimino)bis[5-[(8-hydroxy-3,6-disulfo-1-naphthalenyl)aminocarbonyl]]benzoic acid tetrasodium salt]",-69%,+6 Wells,–,–,–,–,–,–,–,–,–
"O=C(Nc1ccc(C(=O)Nc2cc(S(=O)(=O)[O-])cc3cc(S(=O)(=O)[O-])ccc23)c(S(=O)(=O)[O-])c1)Nc1ccc(C(=O)Nc2cc(S(=O)(=O)[O-])cc3cc(S(=O)(=O)[O-])ccc23)c(S(=O)(=O)[O-])c1.[Na+].[Na+].[Na+].[Na+].[Na+].[Na+] [4,4'-{Ureylenebis[(2-sulfo-4,1-phenylenecarbonyl)imino]}-di-2,7-naphthalenedisulfonic acid hexasodium salt]",–,–,N,–,–,–,–,–,–,–,–
"O=C(Nc1ccc(C(=O)Nc2cc(S(=O)(=O)O)cc3cc(S(=O)(=O)O)cc(O)c23)c(S(=O)(=O)O)c1)Nc1ccc(C(=O)Nc2cc(S(=O)(=O)O)cc3cc(S(=O)(=O)O)cc(O)c23)c(S(=O)(=O)O)c1 [4,4'-{Ureylenebis[(2-sulfo-4,1-phenylenecarbonyl)imino]}bis-[5-hydroxy-2,7-naphthalenedisulfonic acid]hexasodium salt]",-74%,–,–,-35%,-41%,-98%,-81%,-63%,–,–,–
"Cc1ccc(NC(=O)Nc2ccc(C)c(C(=O)Nc3ccc(S(=O)(=O)[O-])c4cc(S(=O)(=O)[O-])cc(O)c34)c2)cc1C(=O)Nc1ccc(S(=O)(=O)[O-])c2cc(S(=O)(=O)[O-])cc(O)c12.[Na+].[Na+].[Na+].[Na+] [4,4'-{Ureylenebis[(6-methyl-3,1-phenylenecarbonyl)imino]}-bis[5-hydroxy-1,7-naphthalenedisulfonic acid], tetrasodium salt]",–,–,+2 Wells,–,–,–,–,–,–,–,–
"O=C(Nc1ccc(C(=O)Nc2cccc3cc(S(=O)(=O)O)cc(O)c23)c(S(=O)(=O)O)c1)Nc1ccc(C(=O)Nc2cccc3cc(S(=O)(=O)O)cc(O)c23)c(S(=O)(=O)O)c1 [5,5'-{Ureylenebis[(2-sulfo-4,1-phenylenecarbonyl)imino]}-bis[4-hydroxy-2-naphthalenesulfonic acid]tetrasodium salt]",-58%,+2 Wells,–,-26%,0%,–,–,–,–,–,–
"O=C(Nc1ccc(C(=O)Nc2cc(S(=O)(=O)[O-])cc3cc(S(=O)(=O)[O-])cc(S(=O)(=O)[O-])c23)cc1)Nc1ccc(C(=O)Nc2cc(S(=O)(=O)[O-])cc3cc(S(=O)(=O)[O-])cc(S(=O)(=O)[O-])c23)cc1.[Na+].[Na+].[Na+].[Na+].[Na+].[Na+] [8,8'-[Ureylenebis(4,1-phenylenecarbonylimino)]di-1,3,6-naphthalenetrisulfonic acid hexasodium salt]",–,+4 Wells,–,–,–,-71%,-28%,-16%,-18%,-21%,-33%
"O=C(Nc1ccc(C(=O)Nc2cc(S(=O)(=O)O)cc3cc(S(=O)(=O)O)cc(S(=O)(=O)O)c23)c(S(=O)(=O)O)c1)Nc1ccc(C(=O)Nc2cc(S(=O)(=O)O)cc3cc(S(=O)(=O)O)cc(S(=O)(=O)O)c23)c(S(=O)(=O)O)c1 [8,8'-{Ureylenebis{[(2-sulfo-4,1-phenylene)carbonyl]imino}}-1,3,6-naphthalenetrisulfonic acid octasodium salt]",-8%,–,–,4%,17%,-85%,-53%,-24%,–,–,–

# From patent publication US4229584A, “Ureylenebis(anionic substituted phenylene carbonyl)imino naphthalene sulfonic acids and naphthalene carboxylic acids and their salts” (American Cyanamid Company, priority 1978, dated 1980)
